Assay results reported in US20080305544A1, “Method of Producing Nerve Cell” (KYOWA HAKKO KOGYO CO., LTD. TOKYO, JAPAN, priority 2004, published 2008).

Experiments:
[1] = system: ES cell EB5; experiment: Nerve cell inducing ratio: colonies with neurite / total colonies, differentiation induction of EB5; assay type: cell-based; conditions: for activity to induce differentiation of embryonic stem cells into nerve cells by the combination of heparin and vitamin B12: substance added to 0.01% heparin and 100 nmol/l vitamin B12, conclusion of Example 2; for induction of nerve cells (nerve cell inducing ratio): FIG. 2
Experimental: In the following Examples, an ES cell EB5 [Nature Genet., 24, 372, (2000)] was used as the embryonic stem cell. The EB5 was inoculated into a dish coated with 0.1% of gelatin and sub-cultured at 37° C. in a CO2 incubator ventilated with 5% of carbon dioxide while keeping its undifferentiated state, using G-MEM (Invitrogen) containing 1% fetal bovine serum (manufactured by JRH Biosciences), 10% Knockout Serum Replacement (manufactured by Invitrogen), 1 mmol/l pyruvic acid (manufactured by Sigma), 0.1 mmol/l nonessential amino acids (manufactured by Invitrogen), 0.1 mmol/12-mercaptoethanol (manufactured by Nacalai Tesque), […] blasticidin (manufactured by Invitrogen) and 2×10^3 U/ml ESGRO (manufactured by Chemicon) (to be referred to as “maintenance medium” hereinafter). When differentiation of EB5 is induced, 2.5×10^3 cells of EB5 were inoculated into a 24 well plate coated with 0.1% of gelatin, a medium prepared by eliminating serum, blasticidin and ESGRO from the maintenance medium (hereinafter referred to as “differentiation induction medium”) was added at 1 ml to respective wells, and the cells were allowed to adhere thereto by incubating at 37° C. for 2 hours. Thereafter, 500 μl of PBS containing various concentration of heparin (manufactured by Sigma) or vitamin B12 (cyanocobalamin, manufactured by Nacalai Tesque) (hereinafter referred to as “test solution 1”) was added thereto and incubated at 37° C. for 14 days without changing the medium. Each test condition was carried out in tandem. In this connection, the concentrations of heparin and vitamin B12 mean their concentrations in the test solution 1. On the 14th day after addition of the test solution 1, colonies having a diameter of 50 μm or more were counted using an optical microscope to calculate the number of total colonies. Also, among the colonies, a colony on which neurite was observed was regarded as a nerve cell colony, and the nerve cell inducing ratio was calculated by the following formula. Nerve cell inducing ratio(%)=the number of nerve cell colonies/the number of total colonies×100 Nerve cell inducing differentiation ratio was examined in the same manner as in Example 1, except that PBS containing 0.01% of heparin and 100 nmol/l of vitamin B12 (hereinafter referred to as “test solution 2”), a test solution 3 containing 0.1 μg/ml of biotin [(+)-biotin, manufactured by Wako Pure Chemical Industries] in the test solution 2, a test solution 4 containing 0.42 μg/ml of K4[Fe(CN)6] (manufactured by Nacalai Tesque) in the test solution 2, a test solution 5 containing 0.081 μg/ml of putrescine (manufactured by Sigma) in the test solution 2, a test solution 6 containing 0.1 μg/ml of biotin, 0.42 μg/ml of K4[Fe(CN)6] and 0.081 μg/ml of putrescine in the test solution 2 and a test solution 7 containing 0.01% of heparin, 0.1 […] of biotin, 0.42 μg/ml of K[Fe(CN)6] and 0.081 μg/ml of putrescine were used instead of the test solution 1 in the above-described Example 1.

[2] = system: ES cell EB5; experiment: Number of total colonies formed from EB5 after 14 days of differentiation induction culture; assay type: cell-based; conditions: vitamin B12 added; heparin 0% vs 0.01% addition condition; 14 days after commencement of culturing; FIG. 1
Experimental: In the following Examples, an ES cell EB5 [Nature Genet., 24, 372, (2000)] was used as the embryonic stem cell.
The EB5 was inoculated into a dish coated with 0.1% of gelatin and sub-cultured at 37° C. in a CO2 incubator ventilated with 5% of carbon dioxide while keeping its undifferentiated state, using G-MEM (Invitrogen) containing 1% fetal bovine serum (manufactured by JRH Biosciences), 10% Knockout Serum Replacement (manufactured by Invitrogen), 1 mmol/l pyruvic acid (manufactured by Sigma), 0.1 mmol/l nonessential amino acids (manufactured by Invitrogen), 0.1 mmol/12-mercaptoethanol (manufactured by Nacalai Tesque), […] blasticidin (manufactured by Invitrogen) and 2×10^3 U/ml ESGRO (manufactured by Chemicon) (to be referred to as “maintenance medium” hereinafter). […]
On the 14th day after addition of the test solution 1, colonies having a diameter of 50 μm or more were counted using an optical microscope to calculate the number of total colonies. Also, among the colonies, a colony on which neurite was observed was regarded as a nerve cell colony, and the nerve cell inducing ratio was calculated by the following formula.

## NCCCCN [putrescine]
[1]
  activity to induce differentiation of embryonic stem cells into nerve cells by the combination of heparin and vitamin B12: reinforced

## cyanocobalamin [vitamin B12]
[1]; heparin 0% addition condition, vitamin B12 added, 14 days
  induction of nerve cells (nerve cell inducing ratio): hardly induced
[1]; heparin 0.01% addition condition, vitamin B12 concentration varied, 14 days
  induction of nerve cells (nerve cell inducing ratio): nerve cells are induced

## O=C(O)CCCC[C@@H]1SC[C@@H]2NC(=O)N[C@@H]21 [biotin, (+)-biotin]
[1]
  activity to induce differentiation of embryonic stem cells into nerve cells by the combination of heparin and vitamin B12: reinforced

## heparin
[1]; vitamin B12 not added, heparin concentration varied, 14 days, FIG. 3
  induction of nerve cells (number of nerve cell colonies): hardly induced
[2]
  number of total colonies: difference in the number of total colonies was not found
